How the values were obtained:
[1] = target: T1, S-adenosylmethionine synthase isoform type-1 (Rattus norvegicus, UniProt P13444); experiment: Compound was evaluated for its inhibitory activity against recombinant S-adenosyl L-Methionine synthetase (alpha-isoform) in rat liver
[2] = target: T1, S-adenosylmethionine synthase isoform type-1; experiment: Compound was evaluated for its inhibitory activity against recombinant S-adenosyl L-Methionine synthetase (alpha-isoform) in rat liver; No significant activity

T1 sequence (P13444 whole entry, canonical isoform): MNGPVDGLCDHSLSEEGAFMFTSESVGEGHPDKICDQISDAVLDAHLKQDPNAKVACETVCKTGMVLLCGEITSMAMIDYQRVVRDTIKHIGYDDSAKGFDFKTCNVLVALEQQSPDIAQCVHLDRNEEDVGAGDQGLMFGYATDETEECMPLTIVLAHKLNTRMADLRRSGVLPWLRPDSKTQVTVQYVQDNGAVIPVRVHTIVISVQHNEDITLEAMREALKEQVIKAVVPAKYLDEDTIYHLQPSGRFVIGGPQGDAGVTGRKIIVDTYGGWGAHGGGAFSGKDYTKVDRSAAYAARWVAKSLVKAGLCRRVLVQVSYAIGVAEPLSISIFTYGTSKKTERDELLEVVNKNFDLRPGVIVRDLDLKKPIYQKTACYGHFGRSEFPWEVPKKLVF

| Compound | Ki [1] [µM] | Ki [2] |
| --- | --- | --- |
| CO/C=C\[C@H](N)C(=O)O | 56 |  |
| NC1(C(=O)O)CCOCC1 | 1000 |  |
| N[C@]1(C(=O)O)CCSC1 | 1040 | Not Active |
| N[C@]1(C(=O)O)CCOC1 | 750 | Not Active |
| NC1(C(=O)O)CCSCC1 | 3000 |  |
| NC1(C(=O)O)CCCC1 [CYCLOLEUCINE] | 516 |  |

From ChEMBL document CHEMBL1130856, “A new series of cyclic amino acids as inhibitors of S-adenosyl L-methionine synthetase” (Bioorg Med Chem Lett, 1998)
